# Experimental data published in patent publication US8039444B2, “Antisense permeation enhancers” (Isis Pharmaceuticals, Inc., priority 2001, dated 2011).
# Details: monkey, not told, po
sequence,measurement,value
GCTGATTAGAGAGAGGTCCC (GCTGATTAGAGAGAGGTCCC; chemistry not given here) [antisense oligonucleotide],permeability,poor permeability
